How the values were obtained:
Test in all cases: KinomeScan profiling
Format in all cases: binding
SRMS = target: T1, SRMS (Homo sapiens, UniProt Q9H3Y6); settings: read-out: % control
T1 construct: purchased KinomeScan® (panel service)
Outline: (§1)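 At 1 μM in DMSO, compounds are run through a broad 468-member kinase panel. The luminescent read-out is normalised so that vehicle gives 100% and a positive control gives 0%; any kinase falling below 35% is treated as a target.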

TNNI3K = target: T2, TNNI3K (Homo sapiens, UniProt Q59H18); settings: read-out: % control
T2 sequence (Q59H18 1-835): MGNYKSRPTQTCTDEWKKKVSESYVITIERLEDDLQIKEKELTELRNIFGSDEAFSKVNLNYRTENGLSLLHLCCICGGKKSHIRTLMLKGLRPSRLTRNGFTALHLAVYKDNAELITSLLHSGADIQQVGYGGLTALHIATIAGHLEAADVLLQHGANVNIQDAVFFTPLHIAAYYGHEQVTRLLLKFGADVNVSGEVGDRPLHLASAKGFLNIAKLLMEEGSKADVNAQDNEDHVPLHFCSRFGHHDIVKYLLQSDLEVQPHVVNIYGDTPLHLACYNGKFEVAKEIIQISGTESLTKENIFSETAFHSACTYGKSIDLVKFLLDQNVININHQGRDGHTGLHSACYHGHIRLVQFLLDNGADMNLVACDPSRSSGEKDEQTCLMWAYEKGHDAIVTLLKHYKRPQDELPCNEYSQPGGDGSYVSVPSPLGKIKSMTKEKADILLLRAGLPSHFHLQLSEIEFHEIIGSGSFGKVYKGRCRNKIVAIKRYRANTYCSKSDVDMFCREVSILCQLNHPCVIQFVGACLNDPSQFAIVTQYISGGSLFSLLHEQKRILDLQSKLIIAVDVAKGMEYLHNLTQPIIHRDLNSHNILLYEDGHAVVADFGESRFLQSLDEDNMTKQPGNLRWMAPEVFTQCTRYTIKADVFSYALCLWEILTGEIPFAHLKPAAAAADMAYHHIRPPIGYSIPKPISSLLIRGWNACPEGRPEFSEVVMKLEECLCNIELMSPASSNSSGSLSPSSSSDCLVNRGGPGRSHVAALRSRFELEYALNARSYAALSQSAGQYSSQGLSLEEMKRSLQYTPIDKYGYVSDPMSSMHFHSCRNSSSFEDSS
Outline: as §1

FLT3-autoinhibited = target: T3, FLT3-autoinhibited (Homo sapiens, UniProt P36888); settings: read-out: % control
T3 sequence (P36888 564-993 limits assumed): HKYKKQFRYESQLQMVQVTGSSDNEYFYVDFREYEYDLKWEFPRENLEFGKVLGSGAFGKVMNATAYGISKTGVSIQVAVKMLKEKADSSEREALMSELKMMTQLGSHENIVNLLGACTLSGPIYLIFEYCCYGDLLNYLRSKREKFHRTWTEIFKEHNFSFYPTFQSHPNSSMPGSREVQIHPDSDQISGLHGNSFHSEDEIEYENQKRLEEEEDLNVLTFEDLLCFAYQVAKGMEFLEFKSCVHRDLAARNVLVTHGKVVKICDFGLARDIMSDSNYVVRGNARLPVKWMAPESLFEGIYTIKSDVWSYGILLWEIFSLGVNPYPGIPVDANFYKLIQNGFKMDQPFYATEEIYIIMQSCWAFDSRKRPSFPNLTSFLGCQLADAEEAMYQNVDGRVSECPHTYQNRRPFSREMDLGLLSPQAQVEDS
Outline: as §1

ABL2 = target: T4, ABL2 (Homo sapiens, UniProt P42684); settings: ABL2, 1 μM; read-out: % control
T4 construct: purchased KinomeScan®
T4 sequence (P42684 whole entry): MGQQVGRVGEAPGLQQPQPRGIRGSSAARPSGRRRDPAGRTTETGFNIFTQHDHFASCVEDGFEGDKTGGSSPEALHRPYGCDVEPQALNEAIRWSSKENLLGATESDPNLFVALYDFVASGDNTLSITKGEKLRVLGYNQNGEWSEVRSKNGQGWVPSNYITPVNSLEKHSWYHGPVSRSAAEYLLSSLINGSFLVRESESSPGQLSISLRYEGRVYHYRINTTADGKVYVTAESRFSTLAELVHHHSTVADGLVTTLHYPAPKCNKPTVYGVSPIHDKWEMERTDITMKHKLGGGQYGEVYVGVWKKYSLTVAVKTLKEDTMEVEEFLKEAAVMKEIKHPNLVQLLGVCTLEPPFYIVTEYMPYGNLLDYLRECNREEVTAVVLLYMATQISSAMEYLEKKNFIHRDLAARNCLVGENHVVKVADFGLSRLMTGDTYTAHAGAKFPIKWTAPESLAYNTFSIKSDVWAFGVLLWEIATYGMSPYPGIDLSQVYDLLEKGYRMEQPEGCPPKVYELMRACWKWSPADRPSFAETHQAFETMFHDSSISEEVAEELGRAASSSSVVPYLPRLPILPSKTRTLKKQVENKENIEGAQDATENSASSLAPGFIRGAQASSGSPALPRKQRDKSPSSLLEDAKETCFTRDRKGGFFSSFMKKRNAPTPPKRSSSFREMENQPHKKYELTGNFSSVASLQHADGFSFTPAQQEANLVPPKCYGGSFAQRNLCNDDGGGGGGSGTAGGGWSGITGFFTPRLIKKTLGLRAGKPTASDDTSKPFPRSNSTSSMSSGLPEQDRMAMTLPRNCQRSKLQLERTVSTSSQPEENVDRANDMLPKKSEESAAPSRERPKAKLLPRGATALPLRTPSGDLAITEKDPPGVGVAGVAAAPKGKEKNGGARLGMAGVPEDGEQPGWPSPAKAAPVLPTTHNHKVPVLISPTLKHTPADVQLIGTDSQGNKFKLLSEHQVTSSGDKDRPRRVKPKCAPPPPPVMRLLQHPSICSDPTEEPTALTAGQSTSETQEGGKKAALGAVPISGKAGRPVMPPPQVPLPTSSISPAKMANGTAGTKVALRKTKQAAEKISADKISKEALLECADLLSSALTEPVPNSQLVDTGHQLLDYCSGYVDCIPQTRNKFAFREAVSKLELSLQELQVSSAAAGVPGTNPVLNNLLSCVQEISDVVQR
Outline: as §1

TAOK2 = target: T5, TAOK2 (Homo sapiens, UniProt Q9UL54); settings: TAOK2, 1 μM; read-out: % control
T5 construct: purchased KinomeScan® (panel service)
T5 sequence (Q9UL54 1-1235): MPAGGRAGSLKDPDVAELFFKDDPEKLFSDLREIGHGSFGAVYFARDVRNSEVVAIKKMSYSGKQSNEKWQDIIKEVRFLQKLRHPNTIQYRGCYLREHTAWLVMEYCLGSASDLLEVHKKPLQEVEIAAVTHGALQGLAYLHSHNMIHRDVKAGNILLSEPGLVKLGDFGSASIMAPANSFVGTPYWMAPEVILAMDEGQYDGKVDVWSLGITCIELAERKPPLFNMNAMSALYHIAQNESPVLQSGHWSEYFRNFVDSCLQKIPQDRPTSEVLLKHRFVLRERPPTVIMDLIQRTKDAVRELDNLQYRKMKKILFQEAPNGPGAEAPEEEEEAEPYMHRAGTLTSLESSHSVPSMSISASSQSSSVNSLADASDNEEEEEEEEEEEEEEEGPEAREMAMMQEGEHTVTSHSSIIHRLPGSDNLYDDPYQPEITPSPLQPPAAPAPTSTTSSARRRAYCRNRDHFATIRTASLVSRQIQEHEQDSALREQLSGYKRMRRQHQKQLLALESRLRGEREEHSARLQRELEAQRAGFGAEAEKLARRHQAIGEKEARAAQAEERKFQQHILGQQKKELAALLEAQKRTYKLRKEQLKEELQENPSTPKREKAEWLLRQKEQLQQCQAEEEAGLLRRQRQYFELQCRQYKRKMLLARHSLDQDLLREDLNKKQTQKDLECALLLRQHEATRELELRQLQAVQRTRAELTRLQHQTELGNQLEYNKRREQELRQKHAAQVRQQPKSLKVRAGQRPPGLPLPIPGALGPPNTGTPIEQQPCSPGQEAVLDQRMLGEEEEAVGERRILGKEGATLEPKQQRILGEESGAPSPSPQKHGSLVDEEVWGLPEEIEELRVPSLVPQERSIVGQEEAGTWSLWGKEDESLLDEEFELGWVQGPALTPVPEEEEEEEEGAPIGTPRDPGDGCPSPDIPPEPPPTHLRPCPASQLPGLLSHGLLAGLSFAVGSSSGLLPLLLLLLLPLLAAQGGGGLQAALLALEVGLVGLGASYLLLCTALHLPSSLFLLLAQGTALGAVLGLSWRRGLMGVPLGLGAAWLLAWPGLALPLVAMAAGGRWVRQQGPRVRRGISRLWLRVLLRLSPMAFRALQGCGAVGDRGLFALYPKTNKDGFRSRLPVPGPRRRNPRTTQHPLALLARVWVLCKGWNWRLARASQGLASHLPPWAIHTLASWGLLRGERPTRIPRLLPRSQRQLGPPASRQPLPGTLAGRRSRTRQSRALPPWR
Outline: as §1

ZAK = ZAK (Homo sapiens, UniProt Q9NYL2); settings: read-out: % control
Chain of ZAK (Q9NYL2 whole entry): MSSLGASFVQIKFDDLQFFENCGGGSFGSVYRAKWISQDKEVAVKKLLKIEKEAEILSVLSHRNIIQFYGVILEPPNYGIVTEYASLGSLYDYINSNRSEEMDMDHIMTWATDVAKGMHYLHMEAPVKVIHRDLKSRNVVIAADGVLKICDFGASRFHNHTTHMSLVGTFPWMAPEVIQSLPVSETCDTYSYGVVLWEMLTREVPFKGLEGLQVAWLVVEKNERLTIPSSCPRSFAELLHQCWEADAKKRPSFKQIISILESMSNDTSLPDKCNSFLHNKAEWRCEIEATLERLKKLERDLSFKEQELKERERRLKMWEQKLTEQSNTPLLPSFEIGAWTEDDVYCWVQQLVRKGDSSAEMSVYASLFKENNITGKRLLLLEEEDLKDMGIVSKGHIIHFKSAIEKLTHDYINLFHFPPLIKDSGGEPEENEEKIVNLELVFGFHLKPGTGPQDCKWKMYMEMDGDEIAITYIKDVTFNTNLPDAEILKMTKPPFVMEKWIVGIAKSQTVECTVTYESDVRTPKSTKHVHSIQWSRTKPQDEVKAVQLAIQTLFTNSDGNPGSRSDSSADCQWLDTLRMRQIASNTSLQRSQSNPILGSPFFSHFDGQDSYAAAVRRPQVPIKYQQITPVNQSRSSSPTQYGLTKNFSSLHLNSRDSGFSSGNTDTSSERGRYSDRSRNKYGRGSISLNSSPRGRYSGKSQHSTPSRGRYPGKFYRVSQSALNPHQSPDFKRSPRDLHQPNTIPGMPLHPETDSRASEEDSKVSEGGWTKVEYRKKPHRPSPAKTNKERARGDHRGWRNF
Outline: as §1

T1 sequence (Q9H3Y6 whole entry): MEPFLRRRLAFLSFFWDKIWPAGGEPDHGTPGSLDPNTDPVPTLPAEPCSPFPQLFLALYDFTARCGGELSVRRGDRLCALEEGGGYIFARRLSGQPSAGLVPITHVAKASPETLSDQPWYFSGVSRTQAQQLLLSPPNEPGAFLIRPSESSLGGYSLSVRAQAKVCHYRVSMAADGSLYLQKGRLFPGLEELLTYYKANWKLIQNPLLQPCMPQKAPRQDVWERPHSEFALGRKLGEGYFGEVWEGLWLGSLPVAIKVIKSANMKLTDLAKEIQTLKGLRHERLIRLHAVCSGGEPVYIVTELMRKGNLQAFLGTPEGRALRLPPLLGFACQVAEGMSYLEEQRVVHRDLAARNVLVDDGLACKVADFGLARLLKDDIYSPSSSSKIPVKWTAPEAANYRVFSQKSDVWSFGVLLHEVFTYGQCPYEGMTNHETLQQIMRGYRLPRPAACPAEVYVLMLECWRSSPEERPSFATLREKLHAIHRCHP

SMILES | remaining binding at 1 µM (SRMS) [%] | remaining binding at 1 µM (TNNI3K) [%] | remaining binding at 1 µM (FLT3-autoinhibited) [%] | remaining binding at 1 µM (ABL2) [%] | remaining binding at 1 µM (TAOK2) [%] | remaining binding at 1 µM (ZAK) [%]
CNc1c(-c2cnn([C@H]3CCN(C(C)=O)C[C@@H]3F)c2)cnc2[nH]cc(Cl)c12 [Compound 77, 1-((3S,4S)-4-(4-(3-chloro-4-(methylamino)-1H-pyrrolo[2,3-b]pyridin-5-yl)-1H-pyrazol-1-yl)-3-fluoropiperidin-1-yl)ethan-1-one] | 90 | 65 | 53 | 92 | 69 | 70
O=C(c1ccc(-c2cnc3[nH]cc(Cl)c3c2NC2CCCC2)cc1)N1CCC(N2CCOCC2)CC1 [Compound 101, (4-(3-chloro-4-(cyclopentylamino)-1H-pyrrolo[2,3-b]pyridin-5-yl)phenyl)(4-morpholinopiperidin-1-yl)methanone] | 72 | 100 | 62 | 99 | 81 | 86
CNc1c(-c2ccc(C(=O)N3CCC(N4CCOCC4)CC3)cc2)cnc2[nH]cc(Cl)c12 [Compound 96, (4-(3-chloro-4-(methylamino)-1H-pyrrolo[2,3-b]pyridin-5-yl)phenyl)(4-morpholinopiperidin-1-yl)methanone] | 100 | 74 | 93 | 100 | 69 | 75
